From patent US20170112737A1, “COSMETICS AND PHARMACEUTICAL APPLICATIONS OF GALLIC ACID AND GALLIC ACID DERIVATIVES” (GREENPHARMA, priority 2014, published 2017)
Several values for one entry are separate records, joined by “and”; a condition that tells them apart may be missing. Identical values can stand only once.

Assays:
Assay type in all cases: cell-based, human
[1] = test system: TGK; assay: TGK immunolabeling in situ in NHEK cultures (Example 3); details: 72 hours; for TGK Fluorescence intensity/Number of cells: individual values (n=3); for TGK expression in the NHEK cultures (in words): activity higher than CaCl2 reference as by 10 μg/ml
Description: Normal human epidermal keratinocytes (NHEK); reference BIOalternatives K341, used at the third passage. Culture conditions: 37° C., 5% CO2 Culture medium: keratinocytesSFM complemented with an epidermal growth factor (EGF) 0.25 ng/ml, a pituitary extract (PE) 25 μg/ml and gentamycin […]. Experiment medium: keratinocytesSFM complemented with gentamycin 25 μg/ml. The keratinocytes have been sowed and cultured to confluence in 96-well plates and then, the medium has been replaced by an experiment medium containing, or not (control test), the tested extract or the reference (CaCl2 at 1.5 mM) and the cells have been incubated for 72 hours. All experimental conditions have been realized with n=3, for each marker. After incubation, the test medium has been withdrawn and the cells have been rinsed, fixed and permeabilized. The cells have been marked with the primary antibodies directed against the considered proteins (TGK). […] In parallel, the nucleuses of the cells have been stained by the Hoechst 33258 (bisbenzimide). The acquisition of the images has been carried out with a high-resolution imaging system, INCell AnalyzerTM 1000 (GE Healthcare). For each well, 5 captures of digitized images have been performed. The labelings have been quantified by measurement of the fluorescence intensity of the proteins divided by the number of nucleuses identified by the Hoechst (integration of the digital data by the software Developer Toolbow 1.5, GE Healthcare).

[2] = test system: TGK; assay: TGK immunolabeling in situ in NHEK cultures, loosestrife extracts (Example 5); details: 72 hours, 1.5 mM
Description: Normal human epidermal keratinocytes (NHEK); reference BIOalternatives K341, used at the third passage.
Culture conditions: 37° C., 5% CO2
Culture medium: keratinocytesSFM complemented with an epidermal growth factor (EGF) 0.25 ng/ml, a pituitary extract (PE) 25 μg/ml and gentamycin 25 μg/ml.
Experiment medium: keratinocytesSFM complemented with gentamycin 25 μg/ml.
The keratinocytes have been sowed and cultured to confluence in 96-well plates and then, the medium has been replaced by an experiment medium containing, or not (control test), the tested extract or the reference (CaCl2 at 1.5 mM) and the cells have been incubated for 72 hours. All experimental conditions have been realized with n=3, for each marker.
After incubation, the test medium has been withdrawn and the cells have been rinsed, fixed and permeabilized. […] The acquisition of the images has been carried out with a high-resolution imaging system, INCell Analyzer™ ([…] (GE Healthcare). For each well, 5 captures of digitized images have been performed. The labelings have been quantified by measurement of the fluorescence intensity of the proteins divided by the number of nucleuses identified by the Hoechst (integration of the digital data by the software Developer Toolbow 1.5, GE Healthcare). […]
The TGK expression is given as the Fluorescence intensity/Number of cells (UA)

[3] = test system: reconstructed skins; assay: Histological analysis (HES) of reconstructed skins in depleted medium; details: 30 μg/ml and 60 μg/ml, 9 days
Description: Human skins reconstructed from a culture of keratinocytes sowed on a collagen lattice containing fibroblasts. The keratinocytes are cultured at 37° C., 5% CO2, at the air-liquid interface in one of the following media: Depleted culture medium: Epilife and supplements (without IGF-1 and without hydrocortisone)+CaCl2 1.5 mM+vitamin C (50 μg/ml). The following cultures have been realized: • Untreated reconstructed skins, • Skins reconstructed in a depleted medium, • Skins reconstructed in a depleted medium, each treated by a compound tested hereinabove, at a concentration of 30 μg/ml or 60 μg/ml. […] The evaluation of the tested compound has been performed: • By histological analysis, by the histological observation of the epidermal thickness after HES (Hematoxylin-Eosin-Saffron) staining, • By RT-qPCR, by analysis of the expression of 16 markers (2 of which are reference genes) selected for their importance in cutaneous ageing, on the mRNAs extracted from the reconstructed skins for each treatment, and • By quantifying the release of MMP-1, MMP-3 and procollagen I in the suspensions of the cultures on D9, by ELISA assay, using ELISA assay kits used according to the instructions of the supplier.

[4] = test system: reconstructed skins; assay: RT-qPCR of cutaneous ageing markers in reconstructed skins in depleted medium; details: reconstructed skins in deficient medium, 30 μg/ml and 60 μg/ml, dose-dependent
Description: (§1) Human skins reconstructed from a culture of keratinocytes sowed on a collagen lattice containing fibroblasts. The keratinocytes are cultured at 37° C., 5% CO2, at the air-liquid interface in one of the following media: Depleted culture medium: Epilife and supplements (without IGF-1 and without hydrocortisone)+CaCl2 1.5 mM+vitamin C (50 μg/ml). The following cultures have been realized: • Untreated reconstructed skins, • Skins reconstructed in a depleted medium, • Skins reconstructed in a depleted medium, each treated by a compound tested hereinabove, at a concentration of 30 μg/ml or 60 μg/ml. The reconstructed skins have been placed during the passage at the air-liquid interface (D0) in a 6-well plate in the depleted culture medium containing, or not (deficient control condition), the tested compounds. Afterwards, the reconstructed skins have been cultured for 9 days with the renewal of the culture medium containing, or not, the tested compounds every 2 to 3 days from D0 to D5, and then every day between D5 and D9. In parallel, a culture of the reconstructed skins in a complete medium has been realized, as a control test. All experimental conditions have been realized with n=4. The evaluation of the tested compound has been performed: • By histological analysis, by the histological observation of the epidermal thickness after HES (Hematoxylin-Eosin-Saffron) staining, • By RT-qPCR, by analysis of the expression of 16 markers (2 of which are reference genes) selected for their importance in cutaneous ageing, on the mRNAs extracted from the reconstructed skins for each treatment, and • By quantifying the release of MMP-1, MMP-3 and procollagen I in the suspensions of the cultures on D9, by ELISA assay, using ELISA assay kits used according to the instructions of the supplier.

[5] = test system: MMP-1; assay: ELISA of MMP-1 release by reconstructed skins in depleted medium; details: reconstructed skins in depleted culture medium, 30 μg/ml and 60 μg/ml, D9
Description: as §1, with “fibroblasts.” for “fibroblasts. The keratinocytes are cultured at 37° C., 5% CO2, at the air-liquid interface in one of the following media:”, “μg/ml).” for “μg/ml). The following cultures have been realized: • Untreated reconstructed skins, • Skins reconstructed in a depleted medium, • Skins reconstructed in a depleted medium, each treated by a compound tested hereinabove, at a concentration of 30 μg/ml or 60 μg/ml.”, “test.” for “test. All experimental conditions have been realized with n=4.”

[6] = test system: MMP-3; assay: ELISA of MMP-3 release by reconstructed skins in depleted medium; details: reconstructed skins in depleted culture medium, 30 μg/ml and 60 μg/ml, D9
Description: as §1, with “fibroblasts.” for “fibroblasts. The keratinocytes are cultured at 37° C., 5% CO2, at the air-liquid interface in one of the following media:”, “μg/ml).” for “μg/ml). The following cultures have been realized: • Untreated reconstructed skins, • Skins reconstructed in a depleted medium, • Skins reconstructed in a depleted medium, each treated by a compound tested hereinabove, at a concentration of 30 μg/ml or 60 μg/ml.”, “test.” for “test. All experimental conditions have been realized with n=4.”

[7] = test system: procollagen I; assay: ELISA of procollagen I release by reconstructed skins in depleted medium; details: reconstructed skins in depleted culture medium, 30 μg/ml and 60 μg/ml, D9
Description: as §1, with “fibroblasts.” for “fibroblasts. The keratinocytes are cultured at 37° C., 5% CO2, at the air-liquid interface in one of the following media:”, “μg/ml).” for “μg/ml). The following cultures have been realized: • Untreated reconstructed skins, • Skins reconstructed in a depleted medium, • Skins reconstructed in a depleted medium, each treated by a compound tested hereinabove, at a concentration of 30 μg/ml or 60 μg/ml.”, “test.” for “test. All experimental conditions have been realized with n=4.”

| SMILES | TGK % Control test ([1]; 0.0011 mg/ml) [%] | TGK % Stimulation ([1]; 0.0011 mg/ml) [%] | TGK Fluorescence intensity/Number of cells, Average ([1]; 0.0011 mg/ml) [UA] | TGK Fluorescence intensity/Number of cells ([1]; 0.0011 mg/ml) | TGK % Control test ([1]; 0.003 mg/ml) [%] | TGK % Stimulation ([1]; 0.003 mg/ml) [%] | TGK Fluorescence intensity/Number of cells, Average ([1]; 0.003 mg/ml) [UA] | TGK Fluorescence intensity/Number of cells ([1]; 0.003 mg/ml) | TGK % Control test ([1]; 0.01 mg/ml) [%] | TGK % Stimulation ([1]; 0.01 mg/ml) [%] | TGK Fluorescence intensity/Number of cells, Average ([1]; 0.01 mg/ml) [UA] | TGK Fluorescence intensity/Number of cells ([1]; 0.01 mg/ml) | TGK expression in the NHEK cultures (in words) [1] | further results |
| --- | --- | --- | --- | --- | --- | --- | --- | --- | --- | --- | --- | --- | --- | --- |
| [Ca+2].[Cl-].[Cl-] [CaCl2, reference compound] |  |  |  |  |  |  |  |  |  |  |  |  |  | TGK % Control test ([1]; 1.5 mM): 473%; TGK % Stimulation ([1]; 1.5 mM): 373%; TGK Fluorescence intensity/Number of cells, Average ([1]; 1.5 mM): 29160 UA; TGK Fluorescence intensity/Number of cells ([1]; 1.5 mM): 24066 UA and 30013 UA and 23527 UA; TGK Fluorescence intensity/Number of cells ([1]; 1.5 mM, listed as Ca): 22987 UA and 24146 UA and 32180 UA; TGK % Control test ([1]; 1.5 mM, listed as Ca): 425%; TGK % Stimulation ([1]; 1.5 mM, listed as Ca): 325%; TGK Fluorescence intensity/Number of cells, Average ([1]; 1.5 mM, listed as Ca): 20404 UA; TGK expression Average (Fluorescence intensity/Number of cells) [2]: 69610 UA; TGK expression, Control test % [2]: 316% |
| O=C1OC[C@H]2OC(=O)c3cc(O)c(O)c(O)c3-c3c(O)c(O)c(O)c4c3C(=O)O[C@H]([C@H]3OC(=O)c5c-4c(O)c(O)c(O)c5[C@H]3O)[C@@H]2OC(=O)c2cc(O)c(O)c(O)c2-c2c1cc(O)c(O)c2O [Castalagin] | 202 | 162 | 16135 | 21020 UA and 15623 UA and 11760 UA | 436 | 330 | 26867 | 30752 UA and 20672 UA and 23177 UA | 714 | 614 | 44055 | 59547 UA and 22164 UA and 50453 UA | induce the TGK expression in the NHEK cultures in a dose-dependent fashion |  |
| O=C(O)c1cc(O)c(O)c(O)c1 [Gallic acid, gallic acid] |  |  |  |  |  |  |  |  | 688 | 588 | 42738 | 47924 UA and 36228 UA and 44065 UA | induce the TGK expression in the NHEK cultures in a dose-dependent fashion | TGK % Control test ([1]; 0.0003 mg/ml): 285%; TGK % Stimulation ([1]; 0.0003 mg/ml): 165%; TGK Fluorescence intensity/Number of cells, Average ([1]; 0.0003 mg/ml): 16260 UA; TGK Fluorescence intensity/Number of cells ([1]; 0.0003 mg/ml): 18328 UA and 15263 UA and 15730 UA; TGK % Control test ([1]; 0.03 mg/ml): 1110%; TGK % Stimulation ([1]; 0.03 mg/ml): 1019%; TGK Fluorescence intensity/Number of cells, Average ([1]; 0.03 mg/ml): 60518 UA; TGK Fluorescence intensity/Number of cells ([1]; 0.03 mg/ml): 73870 UA and 53013 UA and 81670 UA |
| O=C1OC[C@H]2OC(=O)c3cc(O)c(O)c(O)c3-c3c(O)c(O)c(O)c4c3C(=O)O[C@H]([C@H]3OC(=O)c5c-4c(O)c(O)c(O)c5[C@@H]3O)[C@@H]2OC(=O)c2cc(O)c(O)c(O)c2-c2c1cc(O)c(O)c2O [Vescalagin] | 287 | 187 | 17722 | 22033 UA and 16688 UA and 14446 UA | 589 | 589 | 42460 | 32859 UA and 40124 UA and 54396 UA | 702 | 602 | 43284 | 27714 UA and 45383 UA and 98755 UA | induce the TGK expression in the NHEK cultures in a dose-dependent fashion | epidermis/dermis cohesion (HES) [3]: Partial recovery of the epidermis/dermis cohesion; histology (HES) [3]: improvement of their histology; expression of the inflammation markers (RT-qPCR) [4]: decrease of the expression of IL1B and PTGS2 to a lesser extent; expression of the marker of the extracellular matrix COLIA1 (RT-qPCR) [4]: increase of the expression of the marker of the extracellular matrix COLIA1; expression of the markers involved in the degradation of the extracellular matrix (RT-qPCR) [4]: decrease of the expression of the genes MMP1, MMP3 and TFPI2; expression of the markers of the cells of the basal layer (RT-qPCR) [4]: increase of the marker of the cell cycle MKI67; expression of the more tardive markers of the differentiation of the keratinocytes (RT-qPCR) [4]: decrease of the expression of TGM1 and CDSN; release of MMP-1 (ELISA) [5]: major and significant decrease; release of MMP-3 (ELISA) [6]: major and significant decrease; release of procollagen I (ELISA) [7]: No modification |
